The compounds below were run on MRSA (assay: Broth microdilution MIC, Example 7 (NCL812 and analogues)). Conditions: MRSA 1; 24 hours; duplicate lines per compound.
Type: cell-based, Staphylococcus aureus
Summary of the method: (§1)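 Values are MICs in μg/ml from broth microdilution per CLSI, with growth scored against a drug-free well.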

Row | SMILES | MIC (μg/ml) at 24 hours, MRSA 1 [µg/mL]
1 | Cl.N=C(NN=Cc1ccc(Cl)o1)NN=Cc1ccc(Cl)o1 [NCL 145] | >128
2 | Cl.N=C(NN=Cc1ccc2[nH]ccc2c1)NN=Cc1ccc2[nH]ccc2c1 [NCL 146] | 8
3 | Cl.N=C(NN=Cc1cnc2ccccc2n1)NN=Cc1cnc2ccccc2n1 [NCL 147] | >128
4 | Cl.N=C(NN=Cc1ccc(C=CCC(=O)O)cc1)NN=Cc1ccc(C=CCC(=O)O)cc1 [NCL 148] | >128
5 | Cl.N=C(N/N=C/c1ccncc1)N/N=C/c1ccncc1 [NCL 149] | >128
6 | COc1ccc(C=CC=NNC(=N)NN=CC=Cc2ccc(OC)cc2)cc1.Cl [NCL 150] | 128
7 | Cl.N=C(NN=Cc1ccc(O)cc1)NN=Cc1ccc(O)cc1 [NCL 151] | 64
8 | Cc1cccc(C=NNC(=N)NN=Cc2cccc(C)c2O)c1O.Cl [NCL 152] | >128

Same assay, conditions: MRSA 2; 24 hours; duplicate lines per compound

Row | SMILES | MIC (μg/ml) at 24 hours, MRSA 2 [µg/mL]
9 | Cl.N=C(NN=Cc1ccc(Cl)o1)NN=Cc1ccc(Cl)o1 [NCL 145] | >128
10 | Cl.N=C(NN=Cc1ccc2[nH]ccc2c1)NN=Cc1ccc2[nH]ccc2c1 [NCL 146] | 16
11 | Cl.N=C(NN=Cc1cnc2ccccc2n1)NN=Cc1cnc2ccccc2n1 [NCL 147] | >128
12 | Cl.N=C(NN=Cc1ccc(C=CCC(=O)O)cc1)NN=Cc1ccc(C=CCC(=O)O)cc1 [NCL 148] | >128
13 | Cl.N=C(N/N=C/c1ccncc1)N/N=C/c1ccncc1 [NCL 149] | >128
14 | COc1ccc(C=CC=NNC(=N)NN=CC=Cc2ccc(OC)cc2)cc1.Cl [NCL 150] | 128
15 | Cl.N=C(NN=Cc1ccc(O)cc1)NN=Cc1ccc(O)cc1 [NCL 151] | 64
16 | Cc1cccc(C=NNC(=N)NN=Cc2cccc(C)c2O)c1O.Cl [NCL 152] | >128

What follows are compounds tested on VRE in the same assay as above. Conditions: VRE 1; 24 hours; duplicate lines per compound.
Type: cell-based, Enterococcus spp.
Summary of the method: as §1

Row | SMILES | MIC (μg/ml) at 24 hours, VRE 1 [µg/mL]
17 | Cl.N=C(NN=Cc1ccc(Cl)o1)NN=Cc1ccc(Cl)o1 [NCL 145] | >128
18 | Cl.N=C(NN=Cc1ccc2[nH]ccc2c1)NN=Cc1ccc2[nH]ccc2c1 [NCL 146] | 16
19 | Cl.N=C(NN=Cc1cnc2ccccc2n1)NN=Cc1cnc2ccccc2n1 [NCL 147] | >128
20 | Cl.N=C(NN=Cc1ccc(C=CCC(=O)O)cc1)NN=Cc1ccc(C=CCC(=O)O)cc1 [NCL 148] | >128
21 | Cl.N=C(N/N=C/c1ccncc1)N/N=C/c1ccncc1 [NCL 149] | >128
22 | COc1ccc(C=CC=NNC(=N)NN=CC=Cc2ccc(OC)cc2)cc1.Cl [NCL 150] | >128
23 | Cl.N=C(NN=Cc1ccc(O)cc1)NN=Cc1ccc(O)cc1 [NCL 151] | 128
24 | Cc1cccc(C=NNC(=N)NN=Cc2cccc(C)c2O)c1O.Cl [NCL 152] | >128

Same assay, conditions: VRE 2; 24 hours; duplicate lines per compound

Row | SMILES | MIC (μg/ml) at 24 hours, VRE 2 [µg/mL]
25 | Cl.N=C(NN=Cc1ccc(Cl)o1)NN=Cc1ccc(Cl)o1 [NCL 145] | >128
26 | Cl.N=C(NN=Cc1ccc2[nH]ccc2c1)NN=Cc1ccc2[nH]ccc2c1 [NCL 146] | 16
27 | Cl.N=C(NN=Cc1cnc2ccccc2n1)NN=Cc1cnc2ccccc2n1 [NCL 147] | >128
28 | Cl.N=C(NN=Cc1ccc(C=CCC(=O)O)cc1)NN=Cc1ccc(C=CCC(=O)O)cc1 [NCL 148] | >128
29 | Cl.N=C(N/N=C/c1ccncc1)N/N=C/c1ccncc1 [NCL 149] | >128
30 | COc1ccc(C=CC=NNC(=N)NN=CC=Cc2ccc(OC)cc2)cc1.Cl [NCL 150] | >128
31 | Cl.N=C(NN=Cc1ccc(O)cc1)NN=Cc1ccc(O)cc1 [NCL 151] | 64
32 | Cc1cccc(C=NNC(=N)NN=Cc2cccc(C)c2O)c1O.Cl [NCL 152] | >128

Each compound was assayed on Escherichia coli in the same assay as above. Conditions: E. coli; 24 hours; duplicate lines per compound.
Type: cell-based

Row | SMILES | MIC (μg/ml) at 24 hours, E. coli [µg/mL]
33 | Cl.N=C(NN=Cc1ccc(Cl)o1)NN=Cc1ccc(Cl)o1 [NCL 145] | >128
34 | Cl.N=C(NN=Cc1ccc2[nH]ccc2c1)NN=Cc1ccc2[nH]ccc2c1 [NCL 146] | >128
35 | Cl.N=C(NN=Cc1cnc2ccccc2n1)NN=Cc1cnc2ccccc2n1 [NCL 147] | >128
36 | Cl.N=C(NN=Cc1ccc(C=CCC(=O)O)cc1)NN=Cc1ccc(C=CCC(=O)O)cc1 [NCL 148] | >128
37 | Cl.N=C(N/N=C/c1ccncc1)N/N=C/c1ccncc1 [NCL 149] | >128
38 | COc1ccc(C=CC=NNC(=N)NN=CC=Cc2ccc(OC)cc2)cc1.Cl [NCL 150] | >128
39 | Cl.N=C(NN=Cc1ccc(O)cc1)NN=Cc1ccc(O)cc1 [NCL 151] | >128
40 | Cc1cccc(C=NNC(=N)NN=Cc2cccc(C)c2O)c1O.Cl [NCL 152] | >128

The compounds below were run on Pseudomonas aeruginosa in the same assay as above. Conditions: P. aeruginosa; 24 hours; duplicate lines per compound.
Type: cell-based

Row | SMILES | MIC (μg/ml) at 24 hours, P. aeruginosa [µg/mL]
41 | Cl.N=C(NN=Cc1ccc(Cl)o1)NN=Cc1ccc(Cl)o1 [NCL 145] | >128
42 | Cl.N=C(NN=Cc1ccc2[nH]ccc2c1)NN=Cc1ccc2[nH]ccc2c1 [NCL 146] | >128
43 | Cl.N=C(NN=Cc1cnc2ccccc2n1)NN=Cc1cnc2ccccc2n1 [NCL 147] | >128
44 | Cl.N=C(NN=Cc1ccc(C=CCC(=O)O)cc1)NN=Cc1ccc(C=CCC(=O)O)cc1 [NCL 148] | >128
45 | Cl.N=C(N/N=C/c1ccncc1)N/N=C/c1ccncc1 [NCL 149] | >128
46 | COc1ccc(C=CC=NNC(=N)NN=CC=Cc2ccc(OC)cc2)cc1.Cl [NCL 150] | >128
47 | Cl.N=C(NN=Cc1ccc(O)cc1)NN=Cc1ccc(O)cc1 [NCL 151] | >128
48 | Cc1cccc(C=NNC(=N)NN=Cc2cccc(C)c2O)c1O.Cl [NCL 152] | >128

Reference: patent US10253002B2, “Compounds and methods of treating infections” (Neoculi Pty Ltd., priority 2013, dated 2019)
